According to PubChem BioAssay AID588620 (NMMLSC, 2011):
The source made the active and inactive calls.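 How the source made its calls: active means fitted half-maximal concentration below 30 µM for cell fluorescence in pump-free yeast, so likely self-fluorescent; inactive means the rest.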

Tested on: not listed separately
Assay: concentration-dependent intrinsic compound fluorescence, S. cerevisiae AD/pABC3, flow cytometry, Cherry Pick1 hits, artefact control for antifungal efflux pump inhibitor project, dose response (AID 588620);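 further: red emission of unstained cells excited at 488 nm measured in PE-Texas Red channel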;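 on fluorescence response, % of control: cell median fluorescence as percent of DMSO wells so 100% equals vehicle baseline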
Settings: S. cerevisiae AD/pABC3 compound autofluorescence, flow cytometry; at 33.1 µM (top of the series)

Compound | fluorescence response, % of control
COc1ccc2cc(C#N)c(N3CCN(Cc4nnnn4CCC(C)C)CC3)nc2c1 | 113% (inactive)
CC1(C)Cc2c(cnn2-c2ccc(F)cc2)C(NC(=O)c2cnccn2)C1 (stereo not drawn) | 102% (inactive)
COc1cc(/C=C2/CC/C(=C/c3ccc(O)c(OC)c3)C2=O)ccc1O | 347% (inactive)
COc1cc2c(=O)n(Cc3ccco3)c(=O)n(CC(=O)c3cccc(Br)c3)c2cc1OC | 86.2% (inactive)
O=C(CSc1nnc(-c2cccnc2)n1Cc1ccco1)c1ccc(Cl)c(Cl)c1 | 81.2% (inactive)
O=C(CSc1nnc(Cc2cccs2)n1Cc1ccco1)Nc1cccc(Cl)c1 | 128% (inactive)
O=C(COC(=O)c1ccc(Cl)cc1O)NCCN1C(=O)CSC1=O | 88.6% (inactive)
Cc1ccc(Cn2nnc3c(=O)[nH]c(C4CCN(S(=O)(=O)c5ccc(F)cc5)CC4)nc32)cc1 | 116% (inactive)
COc1ccc(Cn2c(-c3ccccc3)nc3c(c(=O)c4ccccc4n3C)c2=O)cc1 | 102% (inactive)
O=C1C(Cc2ccccc2)Nc2ncnc(N3CCN(c4ccccc4)CC3)c2N1Cc1ccccc1 (stereo not drawn) | 105% (inactive)
CCc1c(C)nc2cc(-c3cc(OC)cc(OC)c3)nn2c1N1CCN(CCN2CCOCC2)CC1 | 130% (inactive)
Cc1ccc(-c2cc(C(=O)Nc3ccc(S(=O)(=O)Nc4ncccn4)cc3)c3ccccc3n2)cc1 | 96.3% (inactive)
COc1cccc(-c2sc3ccc(OC)cc3c2-c2ccc(OCCN3CCOCC3)cc2)c1 | 92.4% (inactive)
COc1ccc2sc(-c3ccccc3OC)c(-c3ccc(OCCN(C)C)cc3)c2c1 | 118% (inactive)
O=C(NNc1cc(N2CCCC2)nc(N2CCCC2)n1)c1ccc([N+](=O)[O-])cc1 | 95.7% (inactive)
CCOC(=O)C(NC(=O)CC)(Nc1ccccc1)C(F)(F)F (stereo not drawn) | 103% (inactive)
O=C(NC(=Nc1nc2ccccc2o1)NC(=O)c1ccccc1)c1ccccc1 | 102% (inactive)
COc1cc2c(cc1OC)C(=O)N1[C@H]3c4cc(C)ccc4OC[C@@H]3[C@H](c3ccccc3)[C@]1(C)C(=O)N2 | 99.3% (inactive)
COc1ccc(NC(=O)Nc2cccc3c2O[C@H](CN(C)C(=O)Nc2ccc(OC)cc2)[C@@H](C)CN([C@H](C)CO)C3=O)cc1 | 86% (inactive)
O=C1C(Cc2cccc([N+](=O)[O-])c2)SC(=Nc2ccccc2)N1c1ccccc1 (stereo not drawn) | 116% (inactive)
COc1cccc(-c2sc3ccc(OC)cc3c2-c2ccc(OCCN3CCCC3)cc2)c1 | 112% (inactive)
CCOc1ccccc1-c1nc(C(N)=O)c2[nH]c(=O)n(-c3ccccc3)c2n1 | 90.8% (inactive)
CC(CCc1ccccc1)NC(=O)c1ccc(NC(=O)c2cccc(Br)c2)cc1 (stereo not drawn) | 88.6% (inactive)
COc1ccc(S(=O)(=O)N(C)C[C@H]2Oc3c(NC(=O)NC4CCCCC4)cccc3C(=O)N([C@H](C)CO)C[C@@H]2C)cc1 | 119% (inactive)
COc1ccc(C2CC(c3ccccc3C(F)(F)F)=NN2c2ccc(S(N)(=O)=O)cc2)cc1 (stereo not drawn) | 106% (inactive)
O=c1[nH]c(C2CCN(S(=O)(=O)c3ccccc3C(F)(F)F)CC2)nc2c1nnn2Cc1cccc(F)c1 | 83.7% (inactive)

Compound | fluorescence response, % of control
CCOc1ccc(OCC)c(NS(=O)(=O)c2ccc3c(c2)CCN3C(=O)C2CCC2)c1 | 80.8% (inactive)
COc1ccc(-c2nc(Cn3c(SCc4ccc(C)cc4)nc4ccncc43)c(C)o2)cc1OC | 87.6% (inactive)
Cc1ccc(C(=O)N2CCC3(CC2)Oc2ccc(Cl)cc2C(=O)C32CC(c3ccc(Cl)cc3)=NO2)s1 (stereo not drawn) | 94.5% (inactive)
COc1cc(CNC(C)(C)CO)cc(Br)c1OCc1ccc(Cl)cc1 | 130% (inactive)
O=C(C[n+]1cc(-c2ccc(Cl)c(Cl)c2)n2c1CCC2)N1c2ccccc2Sc2ccccc21 | 92.7% (inactive)
Nc1ncc2c(n1)-c1cc(Cl)ccc1SC2 | 102% (inactive)
CC(C)n1cc(/C=N/NC(=O)COc2cccc3cccnc23)c2ccccc21 | 91.7% (inactive)
COc1ccc(-c2sc3cc(OC)ccc3c2-c2ccc(OCCN3CCOCC3)cc2)cc1 | 153% (inactive)
CC(C)OC(=O)c1ccc(COC(=O)c2cccc(-c3nnc(-c4ccccc4)o3)c2)cc1 | 118% (inactive)
C[C@@]12C(=O)Nc3ccc(Cl)cc3C(=O)N1[C@H]1c3cc(Cl)ccc3OC[C@@H]1[C@@H]2c1ccccc1 | 103% (inactive)
CCCCSC1=N/C(=C/c2ccsc2)C(=O)N1c1ccccc1 | 95.7% (inactive)
c1ccc2c(c1)Cc1cc(CN3CCOCC3)ccc1-2 | 109% (inactive)
O=C(O)c1nccnc1C(=O)N1CCN(c2ccccc2)CC1 | 121% (inactive)
O=c1[nH]c(C2CCN(S(=O)(=O)c3ccc4c(c3)OCCO4)CC2)nc2c1nnn2Cc1ccccc1F | 82.5% (inactive)
COc1ccc(-n2ncc3c2CC(C)(C)CC3NC(=O)c2cnc(C)cn2)cc1 (stereo not drawn) | 99.3% (inactive)
O=C(Nc1ccc(O)cc1C(=O)O)c1ccc(NC(=O)c2ccco2)cc1 | 92.4% (inactive)
Cc1ccc(CNC(=O)C(=O)NCC2OCCN2S(=O)(=O)c2ccc(Br)cc2)cc1 (stereo not drawn) | 88.1% (inactive)
O=C(Cc1c2ccccc2nc2ccccc12)c1ccccc1 | 98.7% (inactive)
Cc1noc(C)c1COc1ccccc1C(=O)N1CCN(c2cccc(C(F)(F)F)c2)CC1 | 88.1% (inactive)
Cc1nn(CC(=O)NCc2cccs2)c(=O)c2nn(-c3ccccc3)c(C)c12 | 99% (inactive)
COc1ccccc1-c1sc2ccccc2c1-c1ccc(OCCN2CCCCC2)cc1 | 102% (inactive)
O=C(c1ccoc1)N1CCC2(CC1)Oc1ccc(F)cc1C(=O)C21CC(c2ccc(Cl)cc2)=NO1 (stereo not drawn) | 116% (inactive)
Nc1ccc2nc(-c3cccc(-c4nc5ccc(N)cc5[nH]4)c3)[nH]c2c1 | 99.3% (inactive)
COCC1CCN(C(=O)c2cc(COc3ccc(OC)c4ccccc34)on2)C1 (stereo not drawn) | 82.6% (inactive)
Cc1cnc(C(=O)NC2CC(C)(C)Cc3c2cnn3-c2ccccc2)cn1 (stereo not drawn) | 98.5% (inactive)

Tested on: S. cerevisiae AD/pABC3 compound autofluorescence, flow cytometry
Assay: as above
Settings: not given

Compound | EC50 [µM]
Cc1nn(Cc2cccc(C(=O)NC34CC5CC(CC(C5)C3)C4)c2)c(C)c1Br | 4.45
COc1ccc(OC)c2c1C(=O)C(Cl)=C(Cl)C2=O | 0.495
COc1cc2sc(-c3ccccc3OC)c(-c3ccc(OCCN4CCOCC4)cc3)c2cc1OC | 17.2
CCOc1ccc(NC(=O)CSc2nnc(Cc3cccn3C)n2-c2ccc(F)cc2)cc1 | 13.6
Cc1ccc(/C=C2\CCC3=C2OC(N)=C(C#N)C3c2ccc(C)cc2)cc1 (stereo not drawn) | 9.04
C[C@@]12C(=O)Nc3cc(F)c(F)cc3C(=O)N1[C@H]1c3cc(Cl)ccc3OC[C@@H]1[C@@H]2c1ccccc1 | 12.3
Cc1nc2ccccc2n1CCc1nc2c3ccccc3nc(SCC(=O)NCc3ccco3)n2n1 | 12.2
COc1ccccc1-c1nc(C(N)=O)c2[nH]c(=O)n(-c3cccc(C)c3)c2n1 | 10.9
O=[N+]([O-])c1ccc(N2N=C(c3ccco3)CC2c2ccccc2)cc1 (stereo not drawn) | 18.3
O=C1/C(=C/c2ccco2)Oc2c1ccc(O)c2CN1CCCCC1 | 6.07
Cc1ccc2nc(/C(C#N)=C/c3ccc(O)c(O)c3)[nH]c2c1 | 5.32
C=CCn1c(=O)[nH]c2nc3cc(N=CN(C)C)c(C)cc3nc2c1=O | 5.13
